Reference: ChEMBL document CHEMBL1909046, “DrugMatrix in vitro pharmacology data”

Experiments:
[1] = biological target: T1, Alpha-1D adrenergic receptor (Homo sapiens, UniProt P25100); format: cell membranes, HEK293, Membrane; note: in other assays of this panel Not Active means under 50% inhibition at 10 µM
T1 sequence (P25100 whole entry): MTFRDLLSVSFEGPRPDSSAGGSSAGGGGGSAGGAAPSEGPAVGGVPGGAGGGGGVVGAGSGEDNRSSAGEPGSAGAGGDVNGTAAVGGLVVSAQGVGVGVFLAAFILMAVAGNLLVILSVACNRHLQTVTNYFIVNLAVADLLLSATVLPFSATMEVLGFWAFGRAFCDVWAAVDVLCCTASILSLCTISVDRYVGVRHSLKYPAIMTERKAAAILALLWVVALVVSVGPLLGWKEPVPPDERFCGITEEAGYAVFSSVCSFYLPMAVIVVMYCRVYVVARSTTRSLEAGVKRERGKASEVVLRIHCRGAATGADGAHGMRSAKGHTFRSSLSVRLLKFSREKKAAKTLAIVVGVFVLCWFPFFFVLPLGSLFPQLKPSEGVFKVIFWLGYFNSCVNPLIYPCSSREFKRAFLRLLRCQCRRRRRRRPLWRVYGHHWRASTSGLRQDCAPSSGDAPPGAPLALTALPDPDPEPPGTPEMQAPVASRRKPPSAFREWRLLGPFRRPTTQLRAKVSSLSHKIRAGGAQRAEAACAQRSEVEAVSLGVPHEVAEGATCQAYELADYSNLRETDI

[2] = DRUGMATRIX: Atrial Natriuretic Factor (ANF) radioligand binding (ligand: [125I] ANF (rat)); format: cell membranes, Cavia porcellus, Dunkin-Hartley, Adrenal gland, Membrane; settings: Not Active = under 50% inhibition at 10 µM
[3] = DRUGMATRIX: Calcium Channel Type L, Dihydropyridine radioligand binding (ligand: [3H] Nitrendipine); format: cell membranes, Rattus norvegicus, Wistar, Cerebral cortex, Membrane; settings: Not Active = under 50% inhibition at 10 µM
[4] = biological target: T2, 5-hydroxytryptamine receptor 2C (Homo sapiens, UniProt P28335); assay: DRUGMATRIX: Serotonin (5-Hydroxytryptamine) 5-HT2C radioligand binding (ligand: [3H] Mesulergine); format: cell membranes, CHO-K1, Membrane; settings: Not Active = under 50% inhibition at 10 µM; for Ki: read-out: Ki
T2 sequence (P28335 whole entry): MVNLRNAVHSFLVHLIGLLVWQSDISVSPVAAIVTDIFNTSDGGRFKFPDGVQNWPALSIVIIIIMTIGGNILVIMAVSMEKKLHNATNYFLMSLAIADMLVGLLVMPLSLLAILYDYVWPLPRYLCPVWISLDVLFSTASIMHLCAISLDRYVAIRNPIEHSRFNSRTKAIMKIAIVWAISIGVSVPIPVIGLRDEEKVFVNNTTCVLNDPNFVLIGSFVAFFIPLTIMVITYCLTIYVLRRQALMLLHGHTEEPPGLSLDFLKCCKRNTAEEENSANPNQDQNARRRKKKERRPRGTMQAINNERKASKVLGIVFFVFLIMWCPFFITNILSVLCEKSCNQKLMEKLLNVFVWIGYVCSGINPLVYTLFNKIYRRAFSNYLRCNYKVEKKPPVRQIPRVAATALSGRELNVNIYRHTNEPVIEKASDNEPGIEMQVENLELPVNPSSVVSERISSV

[5] = biological target: Sigma non-opioid intracellular receptor 1 (Homo sapiens, UniProt Q99720); assay: DRUGMATRIX: Sigma1 radioligand binding (ligand: [3H] Haloperidol); format: cell membranes, Jurkat, Membrane; settings: Not Active = under 50% inhibition at 10 µM
Sigma non-opioid intracellular receptor 1, sequence (Q99720 whole entry): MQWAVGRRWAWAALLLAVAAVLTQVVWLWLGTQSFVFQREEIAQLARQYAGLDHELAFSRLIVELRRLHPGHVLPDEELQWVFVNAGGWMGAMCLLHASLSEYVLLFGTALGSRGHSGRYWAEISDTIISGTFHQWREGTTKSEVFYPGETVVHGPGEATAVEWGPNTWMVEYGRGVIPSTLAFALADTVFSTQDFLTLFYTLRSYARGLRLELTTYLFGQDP

Vasopressin V1a receptor = Vasopressin V1a receptor (Homo sapiens, UniProt P37288); format: cell membranes, Membrane; settings: hek293; note: in other assays of this panel Not Active means under 50% inhibition at 10 µM
Vasopressin V1a receptor, sequence (P37288 whole entry): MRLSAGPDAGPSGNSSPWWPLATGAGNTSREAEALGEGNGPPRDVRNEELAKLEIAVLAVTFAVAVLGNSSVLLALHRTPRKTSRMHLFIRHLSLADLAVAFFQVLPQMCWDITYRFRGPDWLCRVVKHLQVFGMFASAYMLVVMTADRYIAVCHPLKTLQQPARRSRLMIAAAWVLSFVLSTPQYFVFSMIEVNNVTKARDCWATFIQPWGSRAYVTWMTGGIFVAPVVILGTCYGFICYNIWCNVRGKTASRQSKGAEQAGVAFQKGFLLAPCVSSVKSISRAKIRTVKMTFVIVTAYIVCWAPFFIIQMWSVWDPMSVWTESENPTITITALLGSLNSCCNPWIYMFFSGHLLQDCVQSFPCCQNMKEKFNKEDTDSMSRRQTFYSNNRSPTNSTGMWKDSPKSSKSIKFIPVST

[6] = DRUGMATRIX: Calcium Channel Type L, Phenylalkylamine radioligand binding (ligand: [3H] (-)-Desmethoxyverapamil (D-888)); format: cell membranes, Rattus norvegicus, Wistar, Brain, Membrane; settings: Not Active = under 50% inhibition at 10 µM
[7] = biological target: C-C chemokine receptor type 2 (Homo sapiens, UniProt P41597); format: cell membranes, CHO-K1, Membrane; settings: cho-k1; note: in other assays of this panel Not Active means under 50% inhibition at 10 µM
C-C chemokine receptor type 2, sequence (P41597 whole entry): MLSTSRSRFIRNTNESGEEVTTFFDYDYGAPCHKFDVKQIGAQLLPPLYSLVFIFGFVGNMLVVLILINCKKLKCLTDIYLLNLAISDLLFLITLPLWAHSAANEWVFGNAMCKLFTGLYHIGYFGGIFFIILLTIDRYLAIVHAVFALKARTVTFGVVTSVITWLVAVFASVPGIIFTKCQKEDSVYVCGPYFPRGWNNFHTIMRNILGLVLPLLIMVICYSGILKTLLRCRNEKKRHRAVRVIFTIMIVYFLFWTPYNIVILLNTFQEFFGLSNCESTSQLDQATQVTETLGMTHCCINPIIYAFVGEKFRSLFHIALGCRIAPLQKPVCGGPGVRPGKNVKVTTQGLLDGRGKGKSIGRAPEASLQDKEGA

[8] = biological target: Prostaglandin G/H synthase 1 (Homo sapiens, UniProt P23219); assay: biochemical; format: tissue-based, Platelet; settings: platelet;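 note: inhibition of COX-1 enzyme activity, with arachidonic acid supplied as substrate; in other assays of this panel Not Active means under 50% inhibition at 10 µM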
Prostaglandin G/H synthase 1, sequence (P23219 whole entry): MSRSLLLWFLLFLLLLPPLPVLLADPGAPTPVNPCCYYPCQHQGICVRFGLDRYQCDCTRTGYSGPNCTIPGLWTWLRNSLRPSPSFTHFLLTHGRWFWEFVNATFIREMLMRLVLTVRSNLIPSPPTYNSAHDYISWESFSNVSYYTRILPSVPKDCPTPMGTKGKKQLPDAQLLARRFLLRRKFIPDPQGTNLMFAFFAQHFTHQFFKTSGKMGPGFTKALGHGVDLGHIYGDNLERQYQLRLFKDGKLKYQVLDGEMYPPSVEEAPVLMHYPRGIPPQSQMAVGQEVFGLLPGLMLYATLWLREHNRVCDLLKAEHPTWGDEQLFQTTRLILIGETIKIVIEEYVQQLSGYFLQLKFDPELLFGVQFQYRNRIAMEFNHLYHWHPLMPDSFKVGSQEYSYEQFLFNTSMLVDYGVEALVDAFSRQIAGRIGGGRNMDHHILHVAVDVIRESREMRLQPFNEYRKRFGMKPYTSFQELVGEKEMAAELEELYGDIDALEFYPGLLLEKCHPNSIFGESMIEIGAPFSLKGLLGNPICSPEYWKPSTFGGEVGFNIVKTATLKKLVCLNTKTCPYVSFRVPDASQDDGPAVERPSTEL

[9] = biological target: T3, Neuropeptide Y receptor type 1 (Homo sapiens, UniProt P25929); format: cell membranes, Membrane; settings: sk-n-mc; note: in other assays of this panel Not Active means under 50% inhibition at 10 µM
T3 sequence (P25929 whole entry): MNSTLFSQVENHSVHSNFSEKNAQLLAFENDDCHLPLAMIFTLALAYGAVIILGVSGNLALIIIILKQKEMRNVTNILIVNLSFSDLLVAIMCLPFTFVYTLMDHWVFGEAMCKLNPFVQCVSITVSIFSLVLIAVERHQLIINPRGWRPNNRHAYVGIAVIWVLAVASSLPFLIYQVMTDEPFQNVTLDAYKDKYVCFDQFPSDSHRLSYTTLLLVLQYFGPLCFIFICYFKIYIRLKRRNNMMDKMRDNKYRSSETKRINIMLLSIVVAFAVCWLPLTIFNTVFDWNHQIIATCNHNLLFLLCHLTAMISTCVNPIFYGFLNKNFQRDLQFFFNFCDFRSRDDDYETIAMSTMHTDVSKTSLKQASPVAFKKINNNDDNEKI

Progesterone receptor = biological target: T4, Progesterone receptor (Bos taurus, UniProt Q690N0); assay: DRUGMATRIX: Progesterone radioligand binding (ligand: [3H] R-5020); format: tissue-based, Uterus; settings: Not Active = under 50% inhibition at 10 µM
T4 sequence (Q690N0 whole entry): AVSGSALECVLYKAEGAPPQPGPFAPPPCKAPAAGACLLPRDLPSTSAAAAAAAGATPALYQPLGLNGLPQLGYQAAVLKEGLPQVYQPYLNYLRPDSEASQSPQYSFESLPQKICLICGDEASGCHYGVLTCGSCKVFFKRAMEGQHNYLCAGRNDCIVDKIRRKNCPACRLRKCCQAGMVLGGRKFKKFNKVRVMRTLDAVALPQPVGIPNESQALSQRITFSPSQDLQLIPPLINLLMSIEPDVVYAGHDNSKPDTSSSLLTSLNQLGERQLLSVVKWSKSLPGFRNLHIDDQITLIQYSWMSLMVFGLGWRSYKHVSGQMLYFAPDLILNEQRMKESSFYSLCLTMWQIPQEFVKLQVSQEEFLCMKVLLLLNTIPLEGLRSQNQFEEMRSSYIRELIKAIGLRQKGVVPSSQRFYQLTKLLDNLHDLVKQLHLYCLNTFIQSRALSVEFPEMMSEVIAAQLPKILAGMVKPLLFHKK

[10] = biological target: Mitogen-activated protein kinase 1 (Homo sapiens, UniProt P28482); assay: DRUGMATRIX: Protein Serine/Threonine Kinase, ERK2 enzyme inhibition (substrate: Myelin Basic Protein); design: species or system Escherichia coli; settings: Not Active = under 50% inhibition at 10 µM
Mitogen-activated protein kinase 1, sequence (P28482 whole entry): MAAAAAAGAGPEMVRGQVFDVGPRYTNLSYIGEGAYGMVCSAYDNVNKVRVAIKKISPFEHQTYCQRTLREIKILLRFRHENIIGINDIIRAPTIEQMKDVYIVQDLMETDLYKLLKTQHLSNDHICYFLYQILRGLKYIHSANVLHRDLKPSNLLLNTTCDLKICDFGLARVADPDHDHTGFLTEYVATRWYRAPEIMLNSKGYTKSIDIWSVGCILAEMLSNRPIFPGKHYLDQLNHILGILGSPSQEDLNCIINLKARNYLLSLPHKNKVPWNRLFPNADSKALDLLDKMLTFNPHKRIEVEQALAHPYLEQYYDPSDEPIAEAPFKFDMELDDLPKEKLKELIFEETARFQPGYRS

Cytochrome P450 2C19 = Cytochrome P450 2C19 (Homo sapiens, UniProt P33261); settings: bti-tn-5b1-4; note: in other assays of this panel Not Active means under 50% inhibition at 10 µM
Cytochrome P450 2C19, sequence (P33261 whole entry): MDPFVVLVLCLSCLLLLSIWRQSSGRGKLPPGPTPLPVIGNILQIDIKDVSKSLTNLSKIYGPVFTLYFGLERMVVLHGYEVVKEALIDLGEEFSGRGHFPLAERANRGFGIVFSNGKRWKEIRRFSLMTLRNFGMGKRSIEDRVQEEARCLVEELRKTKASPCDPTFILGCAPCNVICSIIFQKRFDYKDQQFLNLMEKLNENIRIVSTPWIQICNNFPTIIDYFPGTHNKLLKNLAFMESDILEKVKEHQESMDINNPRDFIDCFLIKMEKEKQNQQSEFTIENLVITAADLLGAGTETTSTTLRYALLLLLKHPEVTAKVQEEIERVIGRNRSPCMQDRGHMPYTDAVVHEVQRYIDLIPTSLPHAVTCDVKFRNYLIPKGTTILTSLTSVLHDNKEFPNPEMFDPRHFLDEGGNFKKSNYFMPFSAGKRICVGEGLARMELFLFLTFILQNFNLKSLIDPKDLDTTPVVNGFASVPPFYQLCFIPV

| Structure (SMILES) | IC50 ([1]; hek293) | IC50 [2] | Ki [2] | IC50 [3] | Ki [3] | IC50 ([4]; cho-k1) | IC50 ([5]; jurkat) | IC50 (Vasopressin V1a receptor) | IC50 [6] | Ki [6] | IC50 [7] | IC50 [8] | IC50 [9] | IC50 (Progesterone receptor) | IC50 [10] | IC50 (Cytochrome P450 2C19) | Ki (Cytochrome P450 2C19) | also measured |
| --- | --- | --- | --- | --- | --- | --- | --- | --- | --- | --- | --- | --- | --- | --- | --- | --- | --- | --- |
| CC(/C=C1\SC(=S)N(CC(=O)O)C1=O)=C\c1ccccc1 | Not Active | Not Active | Not Active | Not Active | Not Active | Not Active | Not Active | Not Active | Not Active | Not Active | Not Active | Not Active | Not Active | Not Active | Not Active | Not Active | Not Active |  |
| OCc1ccccc1 [BENZYL ALCOHOL] | Not Active | Not Active | Not Active | Not Active | Not Active | Not Active | Not Active | Not Active | Not Active | Not Active | Not Active | Not Active | Not Active | Not Active | Not Active | Not Active | Not Active |  |
| CCCc1cc(=O)[nH]c(=S)[nH]1 [PROPYLTHIOURACIL] | Not Active | Not Active | Not Active | Not Active | Not Active | Not Active | Not Active | Not Active | Not Active | Not Active | Not Active | Not Active | Not Active | Not Active | Not Active | Not Active | Not Active |  |
| N#C[C@H](O[C@@H]1O[C@H](CO[C@@H]2O[C@H](CO)[C@@H](O)[C@H](O)[C@H]2O)[C@@H](O)[C@H](O)[C@H]1O)c1ccccc1 [AMYGDALIN] | Not Active | Not Active | Not Active | Not Active | Not Active | Not Active | Not Active | Not Active | Not Active | Not Active | Not Active | Not Active | Not Active | Not Active | Not Active | Not Active | Not Active |  |
| C=C1CC[C@H](O)C/C1=C/C=C1\CCC[C@]2(C)[C@@H]([C@H](C)/C=C/[C@H](C)C(C)C)CC[C@@H]12 [ERGOCALCIFEROL] | Not Active | Not Active | Not Active | Not Active | Not Active | Not Active | Not Active | Not Active | Not Active | Not Active | Not Active | Not Active | Not Active | Not Active | Not Active | Not Active | Not Active |  |
| Cc1ccccc1N1CCN(CCc2nnc3n2CCCC3)CC1 [DAPIPRAZOLE] |  | Not Active | Not Active | Not Active | Not Active |  | Not Active | Not Active | Not Active | Not Active | Not Active | Not Active | Not Active | Not Active | Not Active | Not Active | Not Active | IC50 ([1]; read-out: IC50): 8.31 nM; Ki ([1]; read-out: Ki): 4.09 nM; IC50 ([4]; read-out: IC50): 625 nM; Ki [4]: 327 nM |
| CC=CC(=O)N(CC)c1ccccc1C | Not Active | Not Active | Not Active | Not Active | Not Active | Not Active | Not Active | Not Active | Not Active | Not Active | Not Active | Not Active | Not Active | Not Active | Not Active | Not Active | Not Active |  |
| COc1ccc(CN(CCN(C)C)c2ccccn2)cc1 [PYRILAMINE] | Not Active | Not Active | Not Active | Not Active | Not Active |  |  | Not Active | Not Active | Not Active | Not Active | Not Active | Not Active | Not Active | Not Active | Not Active | Not Active | IC50 ([4]; read-out: IC50): 1130 nM; Ki [4]: 592 nM; IC50 ([5]; read-out: IC50): 1560 nM; Ki ([5]; read-out: Ki): 655 nM |
| CC[C@@]1(O)C(=O)OCc2c1cc1n(c2=O)Cc2cc3ccccc3nc2-1 [CAMPTOTHECIN] | Not Active | Not Active | Not Active | Not Active | Not Active | Not Active | Not Active | Not Active | Not Active | Not Active | Not Active | Not Active | Not Active | Not Active | Not Active | Not Active | Not Active |  |
